Laboratory results taken from US6720346B2, “Thiazole benzamide derivatives and pharmaceutical compositions for inhibiting cell proliferation” (Agouron Pharmaceuticals, Inc., priority 2001, dated 2004).
Where a name gives a salt, the structure may show the parent alone.

Assays:
CDK2/cyclin A = target: T1, CDK2/cyclin A (Homo sapiens, UniProt P24941); assay: Inhibition of CDK2/cyclin A retinoblastoma kinase activity (Ki; % inhibition); type: biochemical; settings: for Ki: apparent Ki, CDK2/cyclin A, Rb substrate
T1 construct: made in house; host or cells: CDK2: insect cells (baculovirus); cyclin A: E. coli
Outline: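 Apparent Ki values came from fitting concentration-dependent activity data to competitive (or competitive tight-binding) models, and % inhibition from single 30 nM screens of library compounds. Activity was measured as ³²P/³³P incorporation from 25 μM ATP into an Rb substrate by 10 or 19 nM CDK2/delta cyclin A at 30 °C over 60–75 min, pH 7.4.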

human CDK4/cyclin D3 = target: T2, human CDK4/cyclin D3 (Homo sapiens, UniProt P11802); assay: Inhibition of CDK4/cyclin D retinoblastoma kinase activity (Ki; % inhibition); type: biochemical; settings: for Ki: apparent Ki, CDK4/cyclin D3, Rb substrate
T2 construct: made in house; host or cells: insect cells co-infected with baculovirus vectors
Outline: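 Radiometric filter-binding read-out: Rb residues 386-928 phosphorylated by 5 nM CDK4/cyclin D3(1-264) from baculovirus-infected insect cells, 25 μM ATP, HEPES pH 7.4, 30 °C. Run 20 min, or 60 min for tight-binding inhibitors. Screening at 30 nM theoretical compound; apparent Ki by competitive-inhibition fitting.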

HCT-116 cell line = assay: Inhibition of cell growth, MTT tetrazolium salt assay; type: cell-based; settings: for IC50: Homo sapiens, HCT-116, 120 h, MTT, three to five days
Outline: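 Growth inhibition was read as MTT-formazan absorbance at 540 nm, after 4 h with 0.2 mg/mL MTT. Before that, HCT-116 cells had been exposed 3–5 days at 37 °C to compounds in 0.5% (v/v) DMSO, added 4 h after plating. 50% and 90% inhibitory concentrations were taken from semi-log concentration–inhibition plots versus vehicle controls.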

[1] = HCT-116 cells, 0.25 μM compound

T2 sequence (P11802 whole entry): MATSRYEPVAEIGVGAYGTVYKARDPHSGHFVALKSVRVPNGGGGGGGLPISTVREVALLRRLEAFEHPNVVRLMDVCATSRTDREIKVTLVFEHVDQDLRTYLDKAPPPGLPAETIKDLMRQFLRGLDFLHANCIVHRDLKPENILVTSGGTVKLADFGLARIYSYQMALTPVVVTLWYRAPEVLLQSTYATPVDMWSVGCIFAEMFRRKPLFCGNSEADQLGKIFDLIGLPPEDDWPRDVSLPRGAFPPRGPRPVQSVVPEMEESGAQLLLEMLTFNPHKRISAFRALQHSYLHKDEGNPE
T2 sequence (P30281 1-264 partner limits assumed): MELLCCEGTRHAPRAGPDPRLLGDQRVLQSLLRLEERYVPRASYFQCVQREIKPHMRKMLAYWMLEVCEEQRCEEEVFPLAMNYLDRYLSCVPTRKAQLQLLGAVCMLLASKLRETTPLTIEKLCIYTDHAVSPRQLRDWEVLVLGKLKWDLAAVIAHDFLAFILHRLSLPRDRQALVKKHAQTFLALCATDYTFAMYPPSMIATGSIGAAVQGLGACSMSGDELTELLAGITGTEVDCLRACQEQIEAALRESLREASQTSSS

SMILES	CDK2 % Inhibition at 0.03 μM (CDK2/cyclin A; at 0.03 μM)	CDK4 % Inhibition at 0.03 μM (human CDK4/cyclin D3; at 0.03 μM)	CDK2 % Inhibition at 0.03 μM (CDK2/cyclin A; 0.03 μM compound)	CDK4 % Inhibition at 0.03 μM (human CDK4/cyclin D3; 0.03 μM compound)	HCT-116 % Inhibition at 0.25 μM (HCT-116 cell line; HCT-116, at 0.25 μM)	HCT-116 % Inhibition at 0.1 μM (HCT-116 cell line; HCT-116 cells, 0.1 μM compound)	HCT-116 % Inhibition at 0.25 μM (HCT-116 cell line; [1])	further results
Cc1ccc(CNC(=O)c2ccc(Nc3nc(N)c(C(=O)c4c(F)cccc4F)s3)cc2)cc1 [Example G253]			16%	26%		19%	62%	
C[C@@H](CN(C)C)N(C)C(=O)c1ccc(Nc2nc(N)c(C(=O)c3c(F)cccc3F)s2)cc1 [Example A36, 4-[4-Amino-5-(2,6-difluoro-benzoyl)-thiazol-2-ylamino]-N-(2-dimethylamino-1S-methyl-ethyl)-N-methyl-benzamide]								Ki (CDK2/cyclin A): 223 nM; Ki (human CDK4/cyclin D3): 44 nM; IC50 (HCT-116 cell line): 780 nM
CN(C)C1(CNC(=O)c2ccc(Nc3nc(N)c(C(=O)c4c(F)cccc4F)s3)cc2)CCCC1 [Example A77, 4-{[4-Amino-5-(2,6-difluorobenzoyl)-1,3-thiazol-2-yl]amino}-N-{[1-(dimethylamino)cyclopentyl]methyl}benzamide]								Ki (CDK2/cyclin A): 84 nM; Ki (human CDK4/cyclin D3): 5.2 nM; IC50 (HCT-116 cell line): 120 nM
COC(=O)c1ccc(NC(=O)c2ccc(Nc3nc(N)c(C(=O)c4c(F)cccc4F)s3)cc2)cc1 [Example G61]	19%	19%			58%			
C[C@H](CN(C)C)NC(=O)c1ccc(Nc2nc(N)c(C(=O)c3c(F)cccc3F)s2)cc1 [Example A40, 4-[4-Amino-5-(2,6-difluoro-benzoyl)-thiazol-2-ylamino]-N-(2-dimethylamino-1R-methyl-ethyl)-benzamide Dihydrochloride]								Ki (CDK2/cyclin A): 94 nM; Ki (human CDK4/cyclin D3): 9 nM; IC50 (HCT-116 cell line): 40 nM
Cc1cccc(Cl)c1NC(=O)c1ccc(Nc2nc(N)c(C(=O)c3c(F)cccc3F)s2)cc1 [Example G15]	−12%	4%			46%			
Cn1cncc1CNC(=O)c1ccc(Nc2nc(N)c(C(=O)c3c(F)cccc3F)s2)cc1 [Example A64, 4-[4-Amino-5-(2,6-difluoro-benzoyl)-thiazol-2-ylamino]-N-(1-methylimidazol-5-yl-methyl)-benzamide]								Ki (CDK2/cyclin A): 19 nM; Ki (human CDK4/cyclin D3): 22 nM; IC50 (HCT-116 cell line): > 5000 nM
CN(C)CC(C)(C)NC(=O)c1ccc(Nc2nc(N)c(C(=O)c3c(F)cccc3F)s2)cc1 [Example A61, 4-[4-Amino-5-(2,6-difluoro-benzoyl)-thiazol-2-ylamino]-N-(2-dimethylamino-1,1-dimethyl-ethyl)-benzamide Dihydrochloride]								Ki (CDK2/cyclin A): 37.5 nM; Ki (human CDK4/cyclin D3): 232 nM; IC50 (HCT-116 cell line): 220 nM
COC(CN(C)C(=O)c1ccc(Nc2nc(N)c(C(=O)c3c(F)cccc3F)s2)cc1)OC [Example G19]	−7%	4%			43%			
Nc1nc(Nc2ccc(C(=O)NCCCCc3ccccc3)cc2)sc1C(=O)c1c(F)cccc1F [Example G291]			6%	14%		5%	53%	
Nc1nc(Nc2ccc(C(=O)NCc3ccc(Cl)cc3)cc2)sc1C(=O)c1c(F)cccc1F [Example G258]			25%	20%		41%	84%	
Nc1nc(Nc2ccc(C(=O)N3CCN(CCc4cccs4)CC3)cc2)sc1C(=O)c1c(F)cccc1F [Example G395]			17%	15%		19%	48%	
Nc1nc(Nc2ccc(C(=O)NC3CCCCC3)cc2)sc1C(=O)c1c(F)cccc1F [Example G139]	6%	17%			56%			HCT-116 % Inhibition at 0.1 μM (HCT-116 cell line; HCT-116, at 0.1 μM): 0%
Nc1nc(Nc2ccc(C(=O)NC3CCN(Cc4ccccc4)CC3)cc2)sc1C(=O)c1c(F)cccc1F [Example A13, 4-[4-Amino-5-(2,6-difluoro-benzoyl)-thiazol-2-ylamino]-N-(1-benzyl-piperidin-4-yl)-benzamide]								Ki (CDK2/cyclin A): 79 nM; Ki (human CDK4/cyclin D3): 9 nM; IC50 (HCT-116 cell line): 210 nM
C=CCN(C)C(=O)c1ccc(Nc2nc(N)c(C(=O)c3c(F)cccc3F)s2)cc1 [Example G27]	−6%	4%			60%			
Nc1nc(Nc2ccc(C(=O)NCC(O)CO)cc2)sc1C(=O)c1c(Cl)cccc1Cl (centres unmarked) [Example B3, 4-[4-Amino-5-(2,6-dichloro-benzoyl)-thiazol-2-ylamino]-N-(2,3-dihydroxy-propyl)-benzamide]								Ki (CDK2/cyclin A): 66 nM; Ki (human CDK4/cyclin D3): 8 nM; IC50 (HCT-116 cell line): 18000 nM
CCCCOc1ccc(NC(=O)c2ccc(Nc3nc(N)c(C(=O)c4c(F)cccc4F)s3)cc2)cc1 [Example G205]			1%	7%		12%	52%	
Cc1nccc(-c2cccc(NC(=O)c3ccc(Nc4nc(N)c(C(=O)c5c(F)cccc5F)s4)cc3)c2)n1 [Example G87]	−40%	13%			78%			HCT-116 % Inhibition at 0.1 μM (HCT-116 cell line; HCT-116, at 0.1 μM): 54%
Nc1nc(Nc2ccc(C(=O)Nc3cccc(C(F)(F)F)c3)cc2)sc1C(=O)c1c(F)cccc1F [Example G371]			11%	7%		27%	53%	
CCCN(CCC#N)C(=O)c1ccc(Nc2nc(N)c(C(=O)c3c(F)cccc3F)s2)cc1 [Example G364]			−12%	9%		20%	40%	
CN(CC(O)CO)C(=O)c1ccc(Nc2nc(N)c(C(=O)c3c(F)cccc3F)s2)cc1 (centres unmarked) [Example G174]	0%	15%			56%			HCT-116 % Inhibition at 0.1 μM (HCT-116 cell line; HCT-116, at 0.1 μM): 28%

More lines, main results first:

CDK2 % Inhibition at 0.03 μM (CDK2/cyclin A; at 0.03 μM)	CDK4 % Inhibition at 0.03 μM (human CDK4/cyclin D3; at 0.03 μM)	CDK2 % Inhibition at 0.03 μM (CDK2/cyclin A; 0.03 μM compound)	CDK4 % Inhibition at 0.03 μM (human CDK4/cyclin D3; 0.03 μM compound)	SMILES	HCT-116 % Inhibition at 0.25 μM (HCT-116 cell line; HCT-116, at 0.25 μM)	HCT-116 % Inhibition at 0.1 μM (HCT-116 cell line; HCT-116 cells, 0.1 μM compound)	HCT-116 % Inhibition at 0.25 μM (HCT-116 cell line; [1])	further results
26%	32%			COc1ccccc1CNC(=O)c1ccc(Nc2nc(N)c(C(=O)c3c(F)cccc3F)s2)cc1 [Example G170]	78%			HCT-116 % Inhibition at 0.1 μM (HCT-116 cell line; HCT-116, at 0.1 μM): 44%
		7%	20%	COc1cccc(CCNC(=O)c2ccc(Nc3nc(N)c(C(=O)c4c(F)cccc4F)s3)cc2)c1OC [Example G203]		18%	53%	
10%	23%			Nc1nc(Nc2ccc(C(=O)NCCc3ccccc3Cl)cc2)sc1C(=O)c1c(F)cccc1F [Example G177]	45%			HCT-116 % Inhibition at 0.1 μM (HCT-116 cell line; HCT-116, at 0.1 μM): 24%
23%	36%			CN(C)CCNC(=O)c1ccc(Nc2nc(N)c(C(=O)c3c(F)cccc3F)s2)cc1 [Example G149]	82%			HCT-116 % Inhibition at 0.1 μM (HCT-116 cell line; HCT-116, at 0.1 μM): 10%
13%	22%			Nc1nc(Nc2ccc(C(=O)Nc3ccc4nc[nH]c4c3)cc2)sc1C(=O)c1c(F)cccc1F [Example G100]	89%			HCT-116 % Inhibition at 0.1 μM (HCT-116 cell line; HCT-116, at 0.1 μM): 27%
		−11%	2%	Nc1nc(Nc2ccc(C(=O)NCCc3ccncc3)cc2)sc1C(=O)c1c(F)cccc1F [Example G268]		26%	63%	
		−24%	1%	Nc1nc(Nc2ccc(C(=O)N3CCCCC3CCO)cc2)sc1C(=O)c1c(F)cccc1F (centres unmarked) [Example G265]		21%	48%	
		12%	22%	Nc1nc(Nc2ccc(C(=O)NCCO)cc2)sc1C(=O)c1c(F)cccc1F [Example G326]		11%	13%	
15%	19%			CCN1CCN(C(=O)c2ccc(Nc3nc(N)c(C(=O)c4c(F)cccc4F)s3)cc2)CC1 [Example G81]	58%			
		20%	−6%	Nc1nc(Nc2ccc(C(=O)NC3c4ccccc4CC3O)cc2)sc1C(=O)c1c(F)cccc1F (centres unmarked) [Example G376]		27%	64%	
4%	5%			Nc1nc(Nc2ccc(C(=O)Nc3ccccc3)cc2)sc1C(=O)c1c(F)cccc1F [Example G7]	80%			
		−14%	17%	CN(C)CCCN1CCN(C(=O)c2ccc(Nc3nc(N)c(C(=O)c4c(F)cccc4F)s3)cc2)CC1 [Example G357]		17%	88%	
